Tests used:
Format in all cases: in vivo
corn (Zea mays) = test: Test A pre-/postemergence plant response
How it was run: (§1)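 Greenhouse pot test: loam–sand soil; pre- and postemergence sprays applied same day; post plants 2–10 cm, 1–2 leaves. Readout ~10 d, visual % injury vs untreated (0 = none, 100 = complete control).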

[1] = system: giant foxtail (Setaria faberi); test: Test A pre-/postemergence plant response
How it was run: as §1

[2] = system: Italian ryegrass (Lolium multiflorum); test: Test B pre-/postemergence plant response; settings: for Ryegrass, Italian plant response rating: 8 g ai/ha
How it was run: (§2)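 Visual scoring from 0 (no effect) to 100 (complete control) against untreated controls was done 13 to 15 days after greenhouse treatment. Chemicals were formulated in a surfactant-containing non-phytotoxic solvent and applied to soil preemergence or to 1- to 4-leaf (2-18 cm) plants postemergence.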

[3] = system: bermudagrass (Cynodon dactylon); test: Test B pre-/postemergence plant response; settings: for Bermudagrass plant response rating: 8 g ai/ha
How it was run: as §2

[4] = system: common (oilseed) sunflower (Helianthus annuus); test: Test B pre-/postemergence plant response; settings: Preemergence
How it was run: as §2

[5] = system: eastern black (E.B.) nightshade (Solanum ptycanthum); test: Test B pre-/postemergence plant response; settings: Preemergence
How it was run: as §2

[6] = system: johnsongrass (Sorghum halepense); test: Test B pre-/postemergence plant response; settings: for Johnsongrass plant response rating: 8 g ai/ha
How it was run: as §2

kochia (Kochia scoparia) = test: Test B pre-/postemergence plant response; settings: for Kochia plant response rating: 8 g ai/ha
How it was run: as §2

soybean (Glycine max) = test: Test B pre-/postemergence plant response; settings: for Soybean plant response rating: 8 g ai/ha
How it was run: as §2

[7] = system: velvetleaf (Abutilon theophrasti); test: Test B pre-/postemergence plant response; settings: for Velvetleaf plant response rating: 8 g ai/ha
How it was run: as §2

[8] = system: wheat (Triticum aestivum); test: Test B pre-/postemergence plant response; settings: for Wheat plant response rating: 8 g ai/ha
How it was run: as §2

[9] = system: yellow nutsedge (Cyperus esculentus); test: Test B pre-/postemergence plant response; settings: for Nutsedge, Yellow plant response rating: 8 g ai/ha
How it was run: as §2

[10] = Postemergence, 31 g ai/ha, 0 to 100 scale, 0 no effect, 100 complete control
[11] = Postemergence, 125 g ai/ha, 0 to 100 scale, 0 no effect, 100 complete control
[12] = Preemergence, 31 g ai/ha, 0 to 100 scale, 0 is no effect, 100 is complete control
[13] = Preemergence, 125 g ai/ha, 0 to 100 scale (0 no effect, 100 complete control)
[14] = Postemergence, 16 g ai/ha, scale 0 to 100
[15] = Postemergence, 31 g ai/ha, scale 0 to 100, 0 no effect, 100 complete control
[16] = Postemergence, 62 g ai/ha, scale 0 to 100, 0 no effect, 100 complete control
[17] = Preemergence, 16 g ai/ha, scale 0 to 100 (0 no effect, 100 complete control)
[18] = Preemergence, 31 g ai/ha, scale 0 to 100 (0 no effect, 100 complete control)
[19] = Preemergence, 62 g ai/ha, scale 0 to 100
[20] = Preemergence, 31 g ai/ha, 0 to 100 scale, 0 no effect, 100 complete control
[21] = 16 g ai/ha, scale 0 to 100 (0 no effect, 100 complete control)
[22] = Preemergence, 62 g ai/ha, 0 to 100 scale, 0 no effect, 100 complete control

## Cc1cc(-c2ccc(C(F)(F)F)c(F)c2)nn1-c1c(O)c(C(F)(F)F)nn(C)c1=O [Compound 44]
Corn (Zea mays); [10]
  Plant response rating, Corn: 70
Corn (Zea mays); [11]
  Plant response rating, Corn: 90
Corn (Zea mays); [12]
  Plant response rating, Corn: 30
Corn (Zea mays); [13]
  Plant response rating, Corn: 80
[1]; [10]
  Plant response rating, Foxtail, Giant: 90
[1]; [11]
  Plant response rating, Foxtail, Giant: 100
[1]; [12]
  Plant response rating, Foxtail, Giant: 80
[1]; [13]
  Plant response rating, Foxtail, Giant: 100
[2]; postemergence, 0-100 scale
  Ryegrass, Italian plant response rating: 90
[2]; [14]
  Plant response rating, Ryegrass, Italian: 95
[2]; [15]
  Plant response rating, Ryegrass, Italian: 100
[2]; [16]
  Plant response rating, Ryegrass, Italian: 100
[2]; [17]
  Plant response rating, Ryegrass, Italian: 90
[2]; [18]
  Plant response rating, Ryegrass, Italian: 90
[2]; [19]
  Plant response rating, Ryegrass, Italian: 100
[2]; Preemergence, scale 0 to 100
  Ryegrass, Italian plant response rating: 20
[3]; postemergence, 0-100 scale
  Bermudagrass plant response rating: 65
[3]; [14]
  Plant response rating, Bermudagrass: 90
[3]; [15]
  Plant response rating, Bermudagrass: 95
[3]; [16]
  Plant response rating, Bermudagrass: 100
[3]; Preemergence, scale 0 to 100 (0 no effect, 100 complete control)
  Bermudagrass plant response rating: 0
[3]; [17]
  Plant response rating, Bermudagrass: 0
[3]; [20]
  Plant response rating, Bermudagrass: 0
[3]; [19]
  Plant response rating, Bermudagrass: 0
[4]; [21]
  Plant response rating, Sunflower: 0
[4]; 62 g ai/ha, scale 0 to 100
  Plant response rating, Sunflower: 0
[4]; 8 g ai/ha, scale 0 to 100
  Sunflower plant response rating: 0
[5]; [21]
  Plant response rating, Nightshade, E. B.: 0
[5]; 31 g ai/ha, scale 0 to 100 (0 no effect, 100 complete control)
  Plant response rating, Nightshade, E. B.: 0
[5]; 62 g ai/ha, scale 0 to 100
  Plant response rating, Nightshade, E. B.: 55
[5]; 8 g ai/ha, scale 0 to 100
  Nightshade, E. B. plant response rating: 0
[6]; postemergence, 0-100 scale
  Johnsongrass plant response rating: 55
[6]; [14]
  Plant response rating, Johnsongrass: 95
[6]; [15]
  Plant response rating, Johnsongrass: 98
[6]; [16]
  Plant response rating, Johnsongrass: 100
[6]; [17]
  Plant response rating, Johnsongrass: 0
[6]; [20]
  Plant response rating, Johnsongrass: 0
[6]; [19]
  Plant response rating, Johnsongrass: 95
[6]; Preemergence, scale 0 to 100
  Johnsongrass plant response rating: 0
Kochia (Kochia scoparia); postemergence, 0-100 scale
  Kochia plant response rating: 0
Kochia (Kochia scoparia); [14]
  Plant response rating, Kochia: 0
Kochia (Kochia scoparia); [15]
  Plant response rating, Kochia: 0
Kochia (Kochia scoparia); [16]
  Plant response rating, Kochia: 0
Kochia (Kochia scoparia); [17]
  Plant response rating, Kochia: 0
Kochia (Kochia scoparia); [20]
  Plant response rating, Kochia: 0
Kochia (Kochia scoparia); [19]
  Plant response rating, Kochia: 100
Kochia (Kochia scoparia); Preemergence, scale 0 to 100
  Kochia plant response rating: 0
Soybean (Glycine max); postemergence, 0-100 scale
  Soybean plant response rating: 0
Soybean (Glycine max); [14]
  Plant response rating, Soybean: 0
Soybean (Glycine max); [16]
  Plant response rating, Soybean: 0
Soybean (Glycine max); [18]
  Plant response rating, Soybean: 70
Soybean (Glycine max); [19]
  Plant response rating, Soybean: 90
Soybean (Glycine max); Preemergence, scale 0 to 100
  Soybean plant response rating: 0
[7]; postemergence, 0-100 scale
  Velvetleaf plant response rating: 0
[7]; [14]
  Plant response rating, Velvetleaf: 0
[7]; [16]
  Plant response rating, Velvetleaf: 0
[7]; [17]
  Plant response rating, Velvetleaf: 0
[7]; [18]
  Plant response rating, Velvetleaf: 0
[7]; [22]
  Plant response rating, Velvetleaf: 0
[7]; Preemergence, scale 0 to 100
  Velvetleaf plant response rating: 0
[8]; postemergence, 0-100 scale
  Wheat plant response rating: 55
[8]; [14]
  Plant response rating, Wheat: 90
[8]; [16]
  Plant response rating, Wheat: 95
[8]; [17]
  Plant response rating, Wheat: 0
[8]; [18]
  Plant response rating, Wheat: 10
[8]; [22]
  Plant response rating, Wheat: 90
[8]; Preemergence, scale 0 to 100
  Wheat plant response rating: 0
[9]; postemergence, 0-100 scale
  Nutsedge, Yellow plant response rating: 0
[9]; [14]
  Plant response rating, Nutsedge, Yellow: 0
[9]; [15]
  Plant response rating, Nutsedge, Yellow: 0
[9]; [16]
  Plant response rating, Nutsedge, Yellow: 0
[9]; [17]
  Plant response rating, Nutsedge, Yellow: 0
[9]; [18]
  Plant response rating, Nutsedge, Yellow: 0
[9]; [19]
  Plant response rating, Nutsedge, Yellow: 0
[9]; Preemergence, scale 0 to 100
  Nutsedge, Yellow plant response rating: 0
